From patent US20260317333A1, “Heteroaryl Compounds as Ligand Directed Degraders of IRAK4” (Celgene Corporation, priority 2023, published 2026) come the findings set out here.

Each structure is given as a SMILES string. Where a name gives a salt, the structure may show the parent alone. Bounds are passed on as bounds.

For this assay, the target named is T1, IRAK4 (Homo sapiens, UniProt Q9NWZ3).
T1 sequence (Q9NWZ3 1-460): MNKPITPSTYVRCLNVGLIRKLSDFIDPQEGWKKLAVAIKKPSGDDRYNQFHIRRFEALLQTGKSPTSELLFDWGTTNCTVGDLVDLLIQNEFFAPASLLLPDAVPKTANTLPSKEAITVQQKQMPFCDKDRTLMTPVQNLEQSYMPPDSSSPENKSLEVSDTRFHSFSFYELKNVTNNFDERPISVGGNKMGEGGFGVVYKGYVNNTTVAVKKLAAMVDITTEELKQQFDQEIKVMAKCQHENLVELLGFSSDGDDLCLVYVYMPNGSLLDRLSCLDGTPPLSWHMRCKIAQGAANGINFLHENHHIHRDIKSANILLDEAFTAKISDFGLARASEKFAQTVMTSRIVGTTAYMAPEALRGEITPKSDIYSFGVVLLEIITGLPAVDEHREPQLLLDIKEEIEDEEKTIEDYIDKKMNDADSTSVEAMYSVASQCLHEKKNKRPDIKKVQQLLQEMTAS
Description: ALE THP1 HTRF (IRAK4 degradation in THP1 cells, HTRF with anti-IRAK4 antibodies). The format is cell-based. Particulars: THP1 cell lysate; for DC50: read-out: ALE THP1 HTRF EC50. Further details: THP1 Homogeneous Time Resolved Fluorescence (ALE THP1 HTRF) Procedure; endogenous in cells; host or cells: THP1. As for the experimental part: Cell culture media was prepared in a tissue culture hood in a sterile environment by adding 10% FBS and 1% Penicillin Streptomycin to 500 mL no phenol red RPMI 1640 media. The media was filtered through a Nalgene Bottle Top Filter and stored at 4° C.
For Homogenous Time Resolved Fluorescence (HTRF) assays, a Cisbio HTRF kit was used, which included: Lysis Buffer #1 4×, Blocking Reagent #3 100×, 20× Antibody 1 (Anti-IRAK4 d2), 20× Antibody 2 (Anti-IRAK4 k), and Detection Buffer.
4× Lysis Buffer was stored at 4° C. For use as 1× Lysis buffer, the 4× solution was diluted with de-ionized water (distilled water, Gibco Cat. #15230279) and 100× Blocking Reagent in a 1:3:0.04 volume ratio.
20× Antibody Solution aliquots were stored at −80° C. and the Detection Buffer was stored at 4° C. For use as a 1× Antibody Solution, the 20× Antibody Solution aliquot was diluted with Detection Buffer in a 1:19 volume ratio.
Cells were lysed at room temperature for 45 min with shaking. A BCA protein assay was performed and normalization was conducted to the desired total protein concentration with 1× lysis buffer. Next, 1× Antibody Solutions were prepared by adding 380 μL Detection Buffer to 20 μL 20× Antibody Solution aliquots and mixing well. 1× Antibody Solutions were combined 1:1 and briefly vortexed. For control wells, 20 μL 1× anti IRAK4-k Antibody Solution was saved. The 384-well plate (ProxiPlate-384 Plus, Perkin Elmer Cat. #6008289) was loaded by adding 4 μL of the mixed Antibody Solution to empty wells using a single channel repeater. Using a multi-channel repeater, 16 μL lysate was added per well, and any bubbles that were formed were popped with 20 μL pipette tips and Kimwipe edges. In column 10, triplicates of each control were prepared. In wells A10, B10, and C10, buffer control was prepared by adding 16 μL Lysis Buffer and 4 μL Detection Buffer. In wells D10, E10, and F10, cryptate control was prepared by adding 16 μL Lysis Buffer, 2 μL Detection Buffer, and 2 μL 1× anti-IRAK4-k Antibody Solution. In wells G10, H10, and I10, a negative control was prepared by adding 16 μL Lysis Buffer and 4 μL mixed Antibody Solution. The plate was sealed with a clear seal and covered with an aluminum lid. The plate was spun down at 800 g for 5 min and incubated in the dark at room temperature overnight. The next day, the plate was spun down at 800 g for 5 min. The samples were analyzed by a plate reader (Envision, PerkinElmer) using the Desnor 384 HTRF program.
(In general: In TR-FRET formats the signal depends on donor and acceptor labels being close together.)

In the case of `N[C@@H]1C[C@@H](F)CN(c2ccn3ncc(C(=O)Nc4cn([C@H]5CC[C@H](C(=O)N[C@H]6CC[C@@H](c7ccc(C8CCC(=O)NC8=O)cn7)CC6)CC5)nc4C(F)F)c3n2)C1` (some centres unmarked) [Compound P-31], the “ALE THP1 HTRF YMIN” value is reported as >95% and the DC50 is > 10000 nM.

Take `N[C@@H]1C[C@@H](F)CN(c2ccn3ncc(C(=O)Nc4cn([C@H]5CC[C@H](CCN6CCC7(CC6)CN(c6cccc(C8CCC(=O)NC8=O)c6)C7)CC5)nc4C(F)F)c3n2)C1` (some centres unmarked) [Compound P-26]: the “ALE THP1 HTRF YMIN” value is listed as 7% and the DC50 was 15 nM.

In the case of `N[C@@H]1C[C@@H](F)CN(c2ccn3ncc(C(=O)Nc4cn([C@H]5CC[C@H](CN6CCN(C(=O)c7ccc(C8CCC(=O)NC8=O)cc7)CC6)CC5)nc4C(F)(F)F)c3n2)C1` (some centres unmarked) [Compound P-4], the “ALE THP1 HTRF YMIN” value stood at 32% and the DC50 was > 10000 nM.

For the molecule `N[C@@H]1C[C@@H](F)CN(c2ccn3ncc(C(=O)Nc4cn([C@H]5CC[C@H](C(=O)N[C@H]6CC[C@H](c7ccc(C8CCC(=O)NC8=O)nc7)CC6)CC5)nc4C(F)F)c3n2)C1` (some centres unmarked) [Compound P-34], the “ALE THP1 HTRF YMIN” value was 13% and the DC50 stood at 5 nM.

Consider `N[C@@H]1C[C@@H](F)CN(c2ccn3ncc(C(=O)Nc4cn([C@H]5CC[C@H](CN6CCN(Cc7ccc(C8CCC(=O)NC8=O)cc7)CC6)CC5)nc4C(F)(F)F)c3n2)C1` (some centres unmarked) [Compound P-13], for which the “ALE THP1 HTRF YMIN” value came out at 18% and the DC50 came out at 405 nM.

Consider `N[C@@H]1C[C@@H](F)CN(c2ccn3ncc(C(=O)Nc4cn([C@H]5CC[C@H](CCN6CCC(c7ccc(C8CCC(=O)NC8=O)cc7)CC6)CC5)nc4C(F)F)c3n2)C1` (some centres unmarked) [Compound P-20], for which the “ALE THP1 HTRF YMIN” value was 12% and the DC50 worked out at 11 nM.

As for `N[C@@H]1C[C@@H](F)CN(c2ccn3ncc(C(=O)Nc4cn([C@H]5CC[C@H](CN6CCC(CNc7cccc(C8CCC(=O)NC8=O)c7)CC6)CC5)nc4C(F)(F)F)c3n2)C1` (stereo partly drawn) [Compound P-6, 5-((3R,5R)-3-amino-5-fluoropiperidin-1-yl)-N-(1-((1r,4r)-4-((4-(((3-(2,6-dioxopiperidin-3-yl)phenyl)amino)methyl)piperidin-1-yl)methyl)cyclohexyl)-3-(trifluoromethyl)-1H-pyrazol-4-yl) pyrazolo[1,5-a]pyrimidine-3-carboxamide hydrochloride], the “ALE THP1 HTRF YMIN” value amounted to 15% and the DC50 came out at 17 nM.

For the molecule `N[C@@H]1C[C@@H](F)CN(c2ccn3ncc(C(=O)Nc4cn([C@H]5CC[C@H](CCN6CCC[C@H](c7ccc(C8CCC(=O)NC8=O)cc7)C6)CC5)nc4C(F)F)c3n2)C1` (stereo in doubt) [Compound P-29], the “ALE THP1 HTRF YMIN” value is listed as >95% and the DC50 was > 10000 nM.

On to `N[C@@H]1C[C@@H](F)CN(c2ccn3ncc(C(=O)Nc4cn([C@H]5CC[C@H](C(=O)N6CCN(Cc7ccc(C8CCC(=O)NC8=O)cc7)CC6)CC5)nc4C(F)(F)F)c3n2)C1` (some centres unmarked) [Compound P-12], for which the “ALE THP1 HTRF YMIN” value turned out to be 57% and the DC50 is 6860 nM.

As to `N[C@@H]1C[C@@H](F)CN(c2ccn3ncc(C(=O)Nc4cn(C5CCN(CCN6CCN(c7ccc(C8CCC(=O)NC8=O)cc7)CC6)CC5)nc4C(F)F)c3n2)C1` (stereo partly drawn) [Compound P-27, 5-((3R,5R)-3-Amino-5-fluoropiperidin-1-yl)-N-(3-(difluoromethyl)-1-(1-(2-(4-(4-(2,6-dioxopiperidin-3-yl)phenyl)piperazin-1-yl)ethyl)piperidin-4-yl)-1H-pyrazol-4-yl) pyrazolo[1,5-a]pyrimidine-3-carboxamide trihydrochloride], the “ALE THP1 HTRF YMIN” value was determined as 16% and the DC50 was 10 nM.

Consider `N[C@@H]1C[C@@H](F)CN(c2ccn3ncc(C(=O)Nc4cn([C@H]5CC[C@H](C(=O)N[C@H]6CC[C@@H](c7ccc(C8CCC(=O)NC8=O)nc7)CC6)CC5)nc4C(F)F)c3n2)C1` (some centres unmarked) [Compound P-30], for which the “ALE THP1 HTRF YMIN” value was >95% and the DC50 was > 10000 nM.

In the case of `N[C@@H]1C[C@@H](F)CN(c2ccn3ncc(C(=O)Nc4cn([C@H]5CC[C@H](CCN6CCN(c7ccc(C8CCC(=O)NC8=O)cc7)CC6)CC5)nc4C(F)F)c3n2)C1` (stereo partly drawn) [Compound P-21, N-[3-(Difluoromethyl)-1-[4-[2-[4-[4-(2,6-dioxo-3-piperidyl)phenyl]piperazin-1-ylethyl]cyclohexyl]pyrazol-4-yl]-5-[(3R,5R)-3-amino-5-fluoro-1-piperidyl]pyrazolo[1,5-a]pyrimidine-3-carboxamide formic acid salt], the “ALE THP1 HTRF YMIN” value is 15% and the DC50 came out at 10 nM.

For `N[C@@H]1C[C@@H](F)CN(c2ccn3ncc(C(=O)Nc4cn([C@H]5CC[C@H](CN6CCC(Nc7cccc(C8CCC(=O)NC8=O)c7)CC6)CC5)nc4C(F)(F)F)c3n2)C1` (some centres unmarked) [Compound P-8], the “ALE THP1 HTRF YMIN” value is given as >95% and the DC50 was > 10000 nM.

Turning to `N[C@@H]1C[C@@H](F)CN(c2ccn3ncc(C(=O)Nc4cn([C@H]5CC[C@H](CN6CCC(Nc7ccc(C8CCC(=O)NC8=O)cc7)CC6)CC5)nc4C(F)(F)F)c3n2)C1` (stereo partly drawn) [Compound P-5, N-[1-[4-[[4-[4-(2,6-dioxo-3-piperidyl)anilino]-1-piperidyl]methyl]cyclohexyl]-3-(trifluoromethyl)pyrazol-4-yl]-5-[(3R,5R)-3-amino-5-fluoro-1-piperidyl]pyrazolo[1,5-a]pyrimidine-3-carboxamide hydrochloride], the “ALE THP1 HTRF YMIN” value turned out to be 45% and the DC50 is 57 nM.

`N[C@@H]1C[C@@H](F)CN(c2ccn3ncc(C(=O)Nc4cn([C@H]5CC[C@H](CN6CCC7(CC6)CN(c6cccc(C8CCC(=O)NC8=O)c6)C7)CC5)nc4C(F)F)c3n2)C1` (some centres unmarked) [Compound P-18]: the “ALE THP1 HTRF YMIN” value was found to be 13% and the DC50 is 9180 nM.

Take `N[C@@H]1C[C@@H](F)CN(c2ccn3ncc(C(=O)Nc4cn([C@H]5CC[C@H](C(=O)N6CCC7(CC6)CN(c6cccc(C8CCC(=O)NC8=O)c6)C7)CC5)nc4C(F)F)c3n2)C1` (some centres unmarked) [Compound P-17]: the “ALE THP1 HTRF YMIN” value turned out to be 73% and the DC50 is > 10000 nM.

As to `N[C@@H]1C[C@@H](F)CN(c2ccn3ncc(C(=O)Nc4cn([C@H]5CC[C@H](C(=O)NC6CCN(c7ccc(C8CCC(=O)NC8=O)cn7)CC6)CC5)nc4C(F)F)c3n2)C1` (stereo partly drawn) [Compound P-32, N-[3-(Difluoromethyl)-1-[4-[[1-[5-(2,6-dioxo-3-piperidyl)-2-pyridyl]-4-piperidyl]carbamoyl]cyclohexyl]pyrazol-4-yl]-5-[(3R,5R)-3-amino-5-fluoro-1-piperidyl]pyrazolo[1,5-a]pyrimidine-3-carboxamide hydrochloride], the “ALE THP1 HTRF YMIN” value stood at 21% and the DC50 came to 5 nM.

On to `N[C@@H]1C[C@@H](F)CN(c2ccn3ncc(C(=O)Nc4cn([C@H]5CC[C@H](CCN6CCC(Nc7cccc(C8CCC(=O)NC8=O)c7)CC6)CC5)nc4C(F)F)c3n2)C1` (stereo partly drawn) [Compound P-24, 5-((3R,5R)-3-Amino-5-fluoropiperidin-1-yl)-N-(3-(difluoromethyl)-1-((1r,4r)-4-(2-(4-((3-(2,6-dioxopiperidin-3-yl)phenyl)amino)piperidin-1-yl)ethyl)cyclohexyl)-1H-pyrazol-4-yl) pyrazolo[1,5-a]pyrimidine-3-carboxamide dihydrochloride], for which the “ALE THP1 HTRF YMIN” value is given as 12% and the DC50 was 12 nM.

Consider `N[C@@H]1C[C@@H](F)CN(c2ccn3ncc(C(=O)Nc4cn([C@H]5CC[C@H](C(=O)NC6CCN(c7cccc(C8CCC(=O)NC8=O)c7)CC6)CC5)nc4C(F)F)c3n2)C1` (some centres unmarked) [Compound P-14], for which the “ALE THP1 HTRF YMIN” value was 64% and the DC50 was > 10000 nM.
